The subject of assay [1] is MCF7. The assay is described as follows: Cytotoxicity against human MCF7 cells assessed as reduction in cell viability. Type of assay: functional, cell-based.
The target of assay [2] is Vascular endothelial growth factor receptor 2 (Homo sapiens, UniProt P35968). Kind of assay: Inhibition of VEGFR2 (unknown origin).
A further assay relates to DLD-1. The assay is described as follows: Cytotoxicity against human DLD1 cells assessed as reduction in cell viability. The format is functional, cell-based.
A further assay relates to L02. Kind of assay: Cytotoxicity against human L02 cells assessed as reduction in cell viability after 24 hrs by MTT assay. The format is cell-based. To be noted: L02, 24 h. Background: Formazan colour is commonly taken as a measure of viable cells.
Assay [3] has as its system MCF7. The assay is described as follows: Cytotoxicity against human MCF7 cells assessed as reduction in cell viability after 24 hrs by MTT assay. To be noted: MCF7, 24 h. The format is functional, cell-based.
The subject of assay [4] is MDA-MB-231. Kind of assay: Cytotoxicity against human MDA-MB-231 cells assessed as reduction in cell viability after 24 hrs by MTT assay. Type of assay: functional, cell-based. To be noted: Homo sapiens, MDA-MB-231, 24 h.
The subject of assay [5] is HeLa. Kind of assay: Cytotoxicity against human HeLa cells assessed as reduction in cell viability after 24 hrs by MTT assay. The format is functional, cell-based.
The subject of the next assay is HEK-293T. Kind of assay: Cytotoxicity against HEK293T cells assessed as reduction in cell viability after 24 hrs by MTT assay. Type of assay: cell-based. To be noted: Homo sapiens.
Assay [6] relates to A549. The assay is described as follows: Cytotoxicity against human A549 cells assessed as reduction in cell viability after 24 hrs by MTT assay. Type of assay: functional, cell-based. The following applies: A549, 24 h.
The test system of assay [7] is HT-29. Kind of assay: Cytotoxicity against human HT-29 cells assessed as reduction in cell viability by MTT assay. Type of assay: functional, cell-based.
Assay [8] has as its system A549. Kind of assay: Cytotoxicity against human A549 cells assessed as reduction in cell viability by MTT assay. Type of assay: functional, cell-based.
For assay [9], the system named is MCF7. The assay is described as follows: Cytotoxicity against human MCF7 cells assessed as reduction in cell viability by MTT assay. The format is functional, cell-based. The following applies: Homo sapiens, MCF7.
In assay [10] the test system is HeLa. Kind of assay: Cytotoxicity against human HeLa cells assessed as reduction in cell viability by MTT assay. Type of assay: functional, cell-based.
A further assay deals with PC-3. Kind of assay: Cytotoxicity against human PC3 cells assessed as reduction in cell viability by MTT assay. Type of assay: functional, cell-based.
Another assay deals with SK-OV-3. Kind of assay: Growth inhibition of human SKOV3 cells. Type of assay: functional.
A further assay relates to SNU1. Kind of assay: Growth inhibition of human SNU1 cells. Type of assay: functional.
Another assay concerns PANC-1. The assay is described as follows: Growth inhibition of human PANC1 cells. Type of assay: functional.
In another assay the test system is T-24. Kind of assay: Growth inhibition of human T24 cells. Type of assay: functional.
Another assay deals with SN12C. Kind of assay: Growth inhibition of human SN12C cells. The format is functional.
For assay [11], the system named is MCF7. The assay is described as follows: Growth inhibition of human MCF7 cells. Type of assay: functional.
The next assay has as its system BXPC-3. The assay is described as follows: Growth inhibition of human BxPC3 cells. The format is functional.
Assay [12] relates to HepG2. Kind of assay: Growth inhibition of human HepG2 cells. Type of assay: functional.
The next assay relates to AGS. Kind of assay: Growth inhibition of human AGS cells. Type of assay: functional.
The subject of a further assay is WiDr. Kind of assay: Growth inhibition of human WiDr cells. The format is functional.
Assay [13] can be described thus: Growth inhibition of human KATO III cells. Type of assay: functional.
For another assay, the system named is OVCAR-8. The assay is described as follows: Growth inhibition of human OVCAR8 cells. The format is functional.
Another assay deals with Hep 3B2. Kind of assay: Anticancer activity against human Hep3B cells by CCK8 assay. Type of assay: functional, cell-based.
In assay [14] the test system is HepG2. The assay is described as follows: Anticancer activity against human HepG2 cells by CCK8 assay. Type of assay: functional, cell-based.
Another assay concerns OVCAR-3. Kind of assay: Anticancer activity against human OVCAR3 cells by CCK8 assay. Type of assay: functional, cell-based.
A further assay has as its system A2780. The assay is described as follows: Anticancer activity against human A2780 cells by CCK8 assay. The format is functional, cell-based.
The test system of another assay is Caco-2. The assay is described as follows: Cytotoxicity against human Caco2 cells assessed as reduction in cell viability after 72 hrs by MTT assay. The format is functional, cell-based. The following applies: Caco-2, 72 h.
The test system of the next assay is K562. Kind of assay: Cytotoxicity against human K562 cells assessed as reduction in cell viability after 72 hrs by MTT assay. To be noted: K562, 72 h. Type of assay: functional, cell-based.
Assay [15] concerns HeLa. The assay is described as follows: Cytotoxicity against human HeLa cells assessed as reduction in cell viability after 72 hrs by MTT assay. Type of assay: functional, cell-based.
For assay [16], the system named is MCF7. Kind of assay: Potency index, ratio of methotrexate IC50 to compound IC50 for cytotoxicity against human MCF7 cells assessed as reduction in cell viability. Type of assay: functional.
The subject of assay [17] is HepG2. Kind of assay: Cytotoxicity against human HepG2 cells assessed as reduction in cell viability after 48 hrs by MTT assay. The format is functional, cell-based. The following applies: HepG2, 48 h.
Assay [18] concerns MCF7. The assay is described as follows: Cytotoxicity against human MCF7 cells assessed as reduction in cell viability after 48 hrs by MTT assay. Type of assay: functional, cell-based. To be noted: MCF7, 48 h.
Assay [19] concerns MDA-MB-231. The assay is described as follows: Cytotoxicity against human MDA-MB-231 cells assessed as reduction in cell viability. The format is functional, cell-based.
The test system of another assay is Ishikawa. Kind of assay: Cytotoxicity against human Ishikawa cells assessed as reduction in cell viability. The format is functional, cell-based.
The test system of assay [20] is MDA-MB-231. The assay is described as follows: Cytotoxicity against human MDA-MB-231 cells assessed as reduction in cell viability after 96 hrs by MTT assay. The format is functional, cell-based. The following applies: MDA-MB-231, 96 h.
The subject of assay [21] is HT-29. Kind of assay: Cytotoxicity against human HT-29 cells assessed as reduction in cell viability after 96 hrs by MTT assay. Type of assay: functional, cell-based. To be noted: HT-29, 96 h.
Another assay concerns HCT-116. Kind of assay: Cytotoxicity against human HCT116 cells assessed as reduction in cell viability after 96 hrs by MTT assay. To be noted: HCT-116, 96 h. The format is functional, cell-based.

Where only a bound is given, the exact number is not on record here.

Chain of Vascular endothelial growth factor receptor 2 (P35968 whole entry): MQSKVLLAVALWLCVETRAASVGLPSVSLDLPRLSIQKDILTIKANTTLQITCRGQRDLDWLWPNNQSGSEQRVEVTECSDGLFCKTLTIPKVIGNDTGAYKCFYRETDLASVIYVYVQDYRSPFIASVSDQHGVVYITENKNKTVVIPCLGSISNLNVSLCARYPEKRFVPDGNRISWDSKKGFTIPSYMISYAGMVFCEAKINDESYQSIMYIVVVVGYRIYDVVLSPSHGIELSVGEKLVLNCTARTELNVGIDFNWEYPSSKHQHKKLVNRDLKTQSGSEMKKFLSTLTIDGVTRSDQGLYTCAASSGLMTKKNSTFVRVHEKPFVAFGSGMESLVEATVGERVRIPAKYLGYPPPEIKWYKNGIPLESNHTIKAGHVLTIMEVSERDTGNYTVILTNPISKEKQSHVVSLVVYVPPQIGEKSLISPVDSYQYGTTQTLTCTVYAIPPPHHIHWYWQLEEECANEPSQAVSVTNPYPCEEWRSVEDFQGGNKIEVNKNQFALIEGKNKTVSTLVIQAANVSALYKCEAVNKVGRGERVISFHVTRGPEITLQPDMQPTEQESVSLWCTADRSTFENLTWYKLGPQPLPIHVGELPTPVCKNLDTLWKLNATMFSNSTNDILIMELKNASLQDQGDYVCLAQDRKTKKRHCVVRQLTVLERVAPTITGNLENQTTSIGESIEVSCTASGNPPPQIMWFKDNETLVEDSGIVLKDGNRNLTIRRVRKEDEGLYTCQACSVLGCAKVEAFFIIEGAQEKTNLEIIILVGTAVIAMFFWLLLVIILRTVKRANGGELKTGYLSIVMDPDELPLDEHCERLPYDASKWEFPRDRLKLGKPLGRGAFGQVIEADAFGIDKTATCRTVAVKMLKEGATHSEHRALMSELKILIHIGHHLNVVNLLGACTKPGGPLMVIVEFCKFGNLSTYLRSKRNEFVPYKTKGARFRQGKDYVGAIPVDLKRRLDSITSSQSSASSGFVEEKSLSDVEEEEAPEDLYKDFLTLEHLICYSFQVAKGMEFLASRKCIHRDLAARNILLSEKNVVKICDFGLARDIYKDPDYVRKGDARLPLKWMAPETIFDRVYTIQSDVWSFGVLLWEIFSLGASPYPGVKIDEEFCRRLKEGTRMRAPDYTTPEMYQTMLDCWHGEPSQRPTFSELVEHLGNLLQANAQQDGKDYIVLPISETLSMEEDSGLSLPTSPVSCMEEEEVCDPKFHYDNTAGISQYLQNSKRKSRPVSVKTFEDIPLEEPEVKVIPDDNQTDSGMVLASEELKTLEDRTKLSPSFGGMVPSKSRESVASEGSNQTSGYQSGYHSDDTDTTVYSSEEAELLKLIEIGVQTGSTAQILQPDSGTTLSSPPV

As for `CN(C)c1ccc(C2CC(c3c(O)c4ccccc4oc3=O)=NN2c2nc(-c3ccccc3)c(/N=N/c3ccc(Cl)cc3)s2)cc1` (stereo unspecified), the values for the IC50 (with MCF7 [1]; in [2]; with DLD-1) were 5.41 to 6.56 µM, 5.41 µM and 114 to 129 µM, respectively.
Turning to `CC(C)=CC[C@@H](OCc1ccc(C(=O)/N=C/c2c(Cl)c3ccccc3oc2=O)cc1)C1=CC(=O)c2c(O)ccc(O)c2C1=O`, the IC50 in the assay on L02, with MCF7 [3], in the assay with MDA-MB-231 [4], in the assay with HeLa [5], in the assay with HEK-293T and in the assay on A549 [6] was 3.25 to 10.6 µM throughout.
Turning to `COc1ccc2oc(=O)c(/C=C3\SC(=O)N(C(=O)c4ccc(Cl)cc4)C3=O)cc2c1`, the IC50 with HT-29 [7], in the assay on A549 [8], in the assay on MCF7 [9], with HeLa [10] and with PC-3 was 0.95 to 3.2 µM each time.
As to `CC(C)=CC[C@@H](O)C1=CC(=O)c2c(O)ccc(O)c2C1=O` [SHIKONIN], the IC50 (as a rule, the concentration at which inhibition is half-maximal) is 6.22 µM with L02; 6.5 to 10.4 µM with MCF7 [3]; 6.5 to 10.4 µM with MDA-MB-231 [4]; 6.5 to 10.4 µM in the assay on HeLa [5]; 1.52 µM in the assay with HEK-293T; 6.5 to 10.4 µM with A549 [6].
In the case of `COc1ccc2oc(=O)c(-c3nc4cc(OC)ccc4[nH]3)cc2c1`, the GI50 (commonly the concentration at which growth is held to half of that of the control) in the assay with SK-OV-3 was 0.07 to 3.57 µM; with SNU1 it was 0.07 to 3.57 µM; with PANC-1 it was 0.07 to 3.57 µM; in the assay with T-24, 0.07 to 3.57 µM; in the assay on SN12C it was 0.07 to 3.57 µM; in the assay with MCF7 [11] it was greater than 10 µM. The concentration for 50% growth inhibition (GI50) (with BXPC-3; in the assay with HepG2 [12]; with AGS; in the assay on WiDr; in assay [13]; in the assay on OVCAR-8) was 0.07 to 3.57 µM throughout.
Take `CCN(CC)c1ccc2cc(C(=O)N3CCN(CCC[C@H]4O[C@@H]5O[C@@]6(C)CC[C@H]7[C@H](C)CC[C@@H]([C@H]4C)[C@@]57OO6)CC3)c(=O)oc2c1`: the IC50 in the assay with Hep 3B2, in the assay on HepG2 [14], in the assay on OVCAR-3 and in the assay on A2780 was 3.05 to 5.82 µM each time.
As for `CCN(CC)c1ccc2cc(C(=O)NCCNC(=O)CN3CCN(CCC[C@H]4O[C@@H]5O[C@@]6(C)CC[C@H]7[C@H](C)CC[C@@H]([C@H]4C)[C@@]57OO6)CC3)c(=O)oc2c1`, the IC50 in the assay on Hep 3B2, in the assay on HepG2 [14], with OVCAR-3 and with A2780 was 2.33 to 23.7 µM each time.
Take `O=c1cc(Cn2cc(-c3ccccc3)nn2)c2cc(O)c(O)cc2o1`: the IC50 in the assay with Caco-2, in the assay on K562 and in the assay on HeLa [15] was 9.7 to 81.9 µM each time.
Regarding `COc1cccc(-c2cn(Cc3cc(=O)oc4cc(O)c(O)cc34)nn2)c1`, the IC50 with Caco-2, with K562 and in the assay with HeLa [15] was 9.7 to 81.9 µM in each case.
For the compound `COc1ccc(-c2cn(Cc3cc(=O)oc4cc(O)c(O)cc34)nn2)cc1`, the IC50 in the assay with Caco-2, in the assay with K562 and in the assay on HeLa [15] was 9.7 to 81.9 µM each time.
Turning to `CCN(C)S(=O)(=O)c1ccc(/C(C)=N/NC(=O)c2cc(=O)oc3ccccc23)cc1`, in the assay with MCF7 [16], the “Ratio IC50” value was found to be 10.7. Further, the IC50 with MCF7 [9] stood at 2.53 µM.
As for `COc1ccc(-c2csc(-n3nc(C)cc3-c3cc4cc(Cl)ccc4oc3=O)n2)cc1`, the IC50 in the assay with HepG2 [17] was in the range of 3.06 to 3.74 µM; in the assay with MCF7 [18] it was 4.03 to 31.5 µM.
As to `COC(=O)c1cc2cc(-c3nc4cc(C)ccn4c3NC(C)(C)C)cc(C(C)C)c2oc1=O`, the IC50 in the assay on MDA-MB-231 [19], with MCF7 [1] and with Ishikawa was 14.1 to 42.6 µM each time.
With `Cc1cc2nc(-c3cc4ccccc4oc3=O)[nH]c2cc1C`, the concentration for 50% growth inhibition (GI50) in the assay with SK-OV-3 was 0.07 to 3.57 µM; with SNU1, 0.07 to 3.57 µM; in the assay on PANC-1 it was 0.07 to 3.57 µM; in the assay with T-24 it was 0.07 to 3.57 µM; in the assay on SN12C, 0.07 to 3.57 µM; with MCF7 [11], greater than 10 µM. Further, the GI50 (with BXPC-3; in the assay on HepG2 [12]; in the assay on AGS; in the assay with WiDr; in assay [13]; in the assay on OVCAR-8) was 0.07 to 3.57 µM in each case.
For `Cc1ccc2c(Cn3cc(CO[C@H]4O[C@@H]5O[C@@]6(C)CC[C@H]7[C@H](C)CC[C@@H]([C@H]4C)[C@@]57OO6)nn3)cc(=O)oc2c1`, the IC50 in the assay with MDA-MB-231 [20], with HT-29 [21] and in the assay with HCT-116 was 8.57 to 100 µM in each case.
